The numbers were not newly measured in patent US20210252031A1, “USE OF LACTULOSE IN THE TREATMENT OF AUTISM” (Curemark, LLC, priority 2006, published 2021), which cites them from elsewhere.

For the compound `OC[C@H]1O[C@@H](O[C@@H]2[C@@H](CO)OC(O)(CO)[C@H]2O)[C@H](O)[C@@H](O)[C@H]1O` (stereo partly drawn) [Lactulose, 4-O-beta-D-galactopyranosyl-D-fructofuranose], the solubility in water result was “very soluble in water”.
